Here are results for five compounds from patent publication US20240391956A1, “STAPLED PEPTIDES AND METHODS THEREOF” (FOG PHARMACEUTICALS, INC., priority 2023, published 2024).

The target in the test is T1, MDM2 (residues 25-109) (Homo sapiens, UniProt Q00987).
T1 construct: MDM2 (residues 25-109) with an N-terminal 6×His-yBBr-TEV tag was recombinantly expressed in E. coli; made in house; host or cells: E. coli BL21 CodonPlus
The test can be described thus: SPR binding to immobilized biotinylated MDM2 25-109 (Biacore 8K). On the procedure: SPR experiments were performed on a Biacore 8K (Cytiva) instrument at 25° C. in 1×HBS-P+ buffer (Cytiva) with 1% DMSO. A SA Series S sensor chip was docked and pre-conditioned with three injections of 50 mM NaOH/1 M NaCl to remove unbound streptavidin from the surface. Biotinylated MDM2^25-109 were diluted to 2 μg/mL in running buffer and immobilized to channels 1 through 8 at 5 μL/min for 71 sec for a final immobilization level of ˜390 RU. Peptides were diluted to 5 μM in running buffer then serially diluted 2-fold for a total of seven concentrations with one blank (7-point two-fold peptide dilution series with top concentration=5 μM and bottom concentration=78 nM). Compounds were injected over the immobilized and reference surfaces at 30 μL/min for 60 sec and then allowed to dissociate for 180 sec without surface regeneration (N=1). Data was analyzed using Biacore Insight Evaluation software (Cytiva). Sensorgrams were double referenced, with most of them fitted to a 1:1 steady state affinity model, with a few fitted with both steady state affinity model and kinetics model.
MDM2 expression: MDM2 (residues 25-109) with an N-terminal 6×His-yBBr-TEV tag was recombinantly expressed in E. coli BL21 CodonPlus cells (Agilent) from pET-derived expression vectors (Novagen) (“6×His” disclosed as SEQ ID NO: 13). The cells were induced at OD600=0.6 with 1 mM isopropyl β-D-1-thiogalactopyranoside (IPTG) for 4 hours at 37° C., then harvested and resuspended in 25 mM Tris-HCl pH 7.5, 300 mM NaCl, 10% glycerol, 1 mM PMSF. For purification, the pellet was lysed with a tip sonicator, and pelleted at 22,000×g for 30 minutes at 4° C. The pellets were washed with 20 mM Tris-HCl pH 8.0, 150 mM NaCl, 1 M urea, 1.0% triton X-100 three times, and the inclusion body was dissolved in 20 mM Tris-HCl pH 8.0, 150 mM NaCl, 8 M urea, and 2 mM ß-mercaptoethanol (ß-me). The supernatant was purified with Ni-NTA resin (Qiagen), eluting with 20 mM Tris-HCl pH 8.0, 150 mM NaCl, 8 M urea, 2 mM ß-me, and 250 mM imidazole. Protein elutes were diluted to ˜0.1 mg/mL and dialyzed into buffers containing 10 mM Tris-HCl pH 8.0, 150 mM NaCl, 2 mM ß-me, with 4, 2, 1, or 0 M urea, at 4° C. for 8 hours for each urea gradient. Urea-free proteins were concentrated with Amicon spin filters (Millipore Sigma) to ˜1 mg/mL and biotinylated via the yBBr reaction according to reported procedures (e.g., reported in Yin, J. et al. Genetically encoded short peptide tag for versatile protein labeling by Sfp phosphopantetheinyl transferase. Proceedings of the National Academy of Sciences 102, 15815-15820 (2005)). Biotinylated proteins were pooled, concentrated, and loaded onto a Superdex™ 10/300 75 pg (Cytiva) SEC column and eluted in 20 mM HEPES pH 7.0, 200 mM NaCl, 5% glycerol, 0.5 mM tris(2-carboxyethyl) phosphine (TCEP). Fractions containing pure protein were collected, pooled, concentrated to ˜1 mg/mL and stored at −80° C. In some embodiments, such MDM2 preparation were utilized in biochemical assays.
Background: Surface plasmon resonance follows binding to a sensor surface in real time, without labels.

Structures are written as SMILES. Where two headings read alike, the source gives them in different places. *1 amine or outer side, *2 acyl side, *3 side chain or, on linkers, in order; H or OH if unused. Where a SMILES comes first, the peptide text is derived from it. Bridges are numbered along the chain shown (N, C = ends). [ ]: non-standard residue; d: D form. Phenylene(1,4-NHCOCH2)2 = O=C(C[*:1])Nc1ccc(NC(=O)C[*:2])cc1; dNle = CCCC[C@@H](N)C(=O)O

T1 sequence (Q00987 25-109): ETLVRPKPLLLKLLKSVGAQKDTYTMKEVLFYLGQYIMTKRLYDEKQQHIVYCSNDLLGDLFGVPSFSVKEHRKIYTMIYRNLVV

For the compound `CCCC[C@@H](NC(=O)[C@@H](CCC(N)=O)NC(=O)[C@@H](CC(C)C)NC(=O)[C@H]1CSCC(=O)Nc2ccc(cc2)NC(=O)CSC[C@@H](NC(=O)[C@H](NC(=O)[C@@H](C)NC(=O)[C@@H](Cc2c[nH]c3ccccc23)NC(=O)[C@@H](C)NC(=O)[C@H]2CCCN2C(=O)[C@@H](CC(=O)O)NC(C)=O)[C@H](C)O)C(=O)N[C@H](CCCC)C(=O)N[C@H](CC(=O)O)C(=O)N[C@H](C)C(=O)N[C@H](C)C(=O)N[C@H](CC(C)C)C(=O)N[C@H](CC(N)=O)C(=O)N1)C(N)=O` [H106, Ac-dpawatcm*daalnclqm*- NH2] (Ac-[dD][dP][dA][dW][dA][dT][dC][dNle][dD][dA][dA][dL][dN][dC][dL][dQ][dNle]-NH2; linker 7-14 via Phenylene(1,4-NHCOCH2)2), the Kd – broadly, the constant that tells how readily two partners part at equilibrium – was 1.8 µM.

`CCCC[C@H]1NC(=O)[C@@H](C)NC(=O)[C@@H](C)NC(=O)[C@@H](CCC(=O)O)NC(=O)[C@@H](CCCC)NC(=O)[C@H](NC(=O)[C@@H](CCC(=O)O)NC(=O)[C@@H](Cc2ccc(O)cc2)NC(=O)[C@@H](Cc2c[nH]c3ccccc23)NC(=O)[C@@H](C)NC(=O)[C@H]2CCCN2C(=O)[C@@H](CC(=O)O)NC(C)=O)CSCC(=O)Nc2ccc(cc2)NC(=O)CSC[C@H](C(=O)N[C@H](CCC(N)=O)C(=O)N[C@H](CCC(N)=O)C(=O)N[C@@H](C(N)=O)C(C)C)NC(=O)[C@@H](CCCC)NC1=O` [H103, Ac-dpawyecm*eaam*m*cqqv-NH2] (Ac-[dD][dP][dA][dW][dY][dE][dC][dNle][dE][dA][dA][dNle][dNle][dC][dQ][dQ][dV]-NH2; linker 7-14 via Phenylene(1,4-NHCOCH2)2) had a Kd of 0.88 µM.

`CC(=O)N[C@H](CC(=O)O)C(=O)N1CCC[C@@H]1C(=O)N[C@H](C)C(=O)N[C@H](Cc1c[nH]c2ccccc12)C(=O)N[C@H](CC(N)=O)C(=O)N[C@H](Cc1c[nH]cn1)C(=O)N[C@@H]1CSCC(=O)Nc2ccc(cc2)NC(=O)CSC[C@H](C(=O)N[C@H](CO)C(=O)N[C@H](CCC(=O)O)C(=O)N[C@@H](C(N)=O)C(C)C)NC(=O)[C@@H](C(C)C)NC(=O)[C@@H](Cc2ccccc2)NC(=O)[C@@H](C)NC(=O)[C@@H](C)NC(=O)[C@@H](Cc2ccc(O)cc2)NC(=O)[C@@H](CCC(=O)O)NC1=O` [H102, Ac-dpawnhceyaafvcsev-NH2] (Ac-[dD][dP][dA][dW][dN][dH][dC][dE][dY][dA][dA][dF][dV][dC][dS][dE][dV]-NH2; linker 7-14 via Phenylene(1,4-NHCOCH2)2) yielded a Kd of 2.7 µM.

On to `CC(=O)N[C@H](CC(=O)O)C(=O)N1CCC[C@@H]1C(=O)N[C@H](C)C(=O)N[C@H](CO)C(=O)N[C@H](CCCNC(=N)N)C(=O)N[C@H](CC(N)=O)C(=O)N[C@@H]1CSCC(=O)Nc2ccc(cc2)NC(=O)CSC[C@H](C(=O)N[C@H](CCC(=O)O)C(=O)N[C@H](Cc2ccc(O)cc2)C(=O)N[C@H](Cc2c[nH]c3ccccc23)C(N)=O)NC(=O)[C@@H](CC(C)C)NC(=O)[C@@H](Cc2c[nH]cn2)NC(=O)[C@@H](C)NC(=O)[C@@H](C)NC(=O)[C@@H](Cc2c[nH]c3ccccc23)NC(=O)[C@@H](CCC(N)=O)NC1=O` [H107, Ac-dpasrncqwaahlceyw-NH2] (Ac-[dD][dP][dA][dS][dR][dN][dC][dQ][dW][dA][dA][dH][dL][dC][dE][dY][dW]-NH2; linker 7-14 via Phenylene(1,4-NHCOCH2)2), for which, where the note is “SPR, 25° C., 7-point two-fold dilution, top concentration 5 μM, N=1, read-out: Measured KD”, the Kd was 1.1 µM.

With `CCCC[C@H]1NC(=O)[C@@H](CC(=O)O)NC(=O)[C@@H](C)NC(=O)[C@@H](C)NC(=O)[C@@H](CC(C)C)NC(=O)[C@@H](CC(N)=O)NC(=O)[C@H](NC(=O)[C@@H](CCC(=O)O)NC(=O)[C@H](NC(=O)[C@@H](CC(C)C)NC(=O)[C@@H](C)NC(=O)[C@H]2CCCN2C(=O)[C@@H](CC(=O)O)NC(C)=O)C(C)C)CSCC(=O)Nc2ccc(cc2)NC(=O)CSC[C@H](C(=O)N[C@H](Cc2c[nH]cn2)C(=O)N[C@H](Cc2ccccc2)C(=O)N[C@H](Cc2ccc(O)cc2)C(N)=O)NC1=O` [H104, Ac-dpalvecnlaadm*chfy-NH2] (Ac-[dD][dP][dA][dL][dV][dE][dC][dN][dL][dA][dA][dD][dNle][dC][dH][dF][dY]-NH2; linker 7-14 via Phenylene(1,4-NHCOCH2)2), binding was characterised by a dissociation constant (Kd) of 1.8 µM.
